# In US8865122B2, “Methods and compositions for protein labelling” (Genentech, Inc., priority 2009, dated 2014):
# Legend:
# [1] = lipophilicity (log P) measurement; type: physicochemical; settings: pH 7.4
# Procedure: After SPE treatment, method B provided [^18F] 5 with a yield of 59±4%, a radiochemical purity of 94%, and a specific activity of 5.1±1.5 Ci/μmol (determined against an HPLC standard curve of ^19F-labeled 5) in 47±1 min (n=5). The identity of [^18F] 5 was confirmed by HPLC co-elution with ^19F-labeled standard and by LC/MS analysis of the decayed product. The lipophilicity (log P) of [^18F]5 (−2.41±0.09) was measured at pH 7.4 consistent with published methods (Rodionov et al (2007) J Am Chem Soc 129:12705-12).
# [2] = water solubility observation; type: physicochemical
# Text: 4 or [^18F]FPEG4N3 with methods B and C. […] Therefore, method C may be well suited for general radiochemical application facilitating the development of a consistent radiochemical process for the production of a variety of ^18F-labeled prosthetic groups. This may have strong implications for automation and may eliminate the need for dedicating a synthesis module to a specific prosthetic group, as is the case with [^18F]SFB.
# Hsp90 = Hsp90 targeted therapy (17-AAG) treatment response monitored by microPET; type: in vivo, Beige nude XID mice
# Procedure: Hsp90 targeted therapy and microPET imaging. Mice were distributed into two groups (n=4) according to tumor uptake and volume as determined by ^18F-4D5ThioFab one day prior to 17-AAG treatment (Gill et al (2009) Jour. Med. Chem. 52(19):5816-5825). 17-AAG was administered to the treated group at day 0, while the control group animals were left untreated. PET imaging with ^18F-4D5ThioFab was performed at day 1 (fourteen hours after the administration of the last 17-AAG dose), day 5, and day 7. Coronal slices through the tumor of control animals and animals treated with 17-AAG one day before and one day after therapy are shown in FIG. 5a. […] The renal clearance of ^18F-4D5ThioFab was predominant with significant accumulation of radioactivity in the bladder and high uptake in the renal cortex (Table 3). The hepatobiliary route also contributed to tracer excretion leading to accumulation of radioactive metabolites in the large intestine and gall bladder while the retention of radioactivity in the liver was relatively low. […]
# Mice were anesthetized with 3% sevoflurane and inoculated i.v. via the tail vein catheter with 0.3-0.4 mCi of ^18F-Thio4D5Fab in isotonic solution (50-100 μL). […] Body temperature was measured by a rectal probe and maintained by warm air. […]
# HER2 = settings: after 17-AAG, BT474 xenograft, cited from earlier work
smiles,measurement,setting,value
O=C1C=CC(=O)N1CCOCCOCCOCCOCCOCCOCc1cn(CCOCCOCCOCCOCCOCCOCCOCC[18F])nn1 [[^18F]5],logP,[1],-2.41 ± 0.09
[N-]=[N+]=NCCOCC[18F] [[^18F]FPEG2N3],water solubility,[2],limited water solubility
"C=CCNC1=C2C[C@@H](C)C[C@H](OC)[C@H](O)[C@@H](C)/C=C(\C)[C@H](OC(N)=O)[C@@H](OC)/C=C\C=C(/C)C(=O)NC(=CC1=O)C2=O [Compound 17-AAG, 17-(allylamino)-17-demethoxygeldanamycin]",reduction in tumor uptake of ^18F-4D5ThioFab,"Hsp90; day 1 after 17-AAG (three 50 mg/kg i.p. doses), compared to control group and day −1, BT474M1 xenograft",50%
same,rebound of HER2 expression,"Hsp90; day 5 after 17-AAG, ^18F-4D5ThioFab tumor uptake",100%
same,return of HER2 to pretreatment levels,HER2; ^68Ga-DCHF (Smith-Jones et al),12 days
same,reduction in HER2 levels,HER2; imaged with ^68Ga-DCHF (Smith-Jones et al),70%
